Each structure is given as a SMILES string. pEC50: −log10 of the molar value.

A short description of data set [1]: Compound cytotoxicity, XTT-based colorimetric assay. The note with it: human; uninfected MT2 cells, day 4, XTT assay. It is filed as cell-based. The gist of the method:
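CC50 derived from XTT colorimetric signal measured on day 4 in MT2 cells that were not infected. All other steps followed the antiviral assay protocol.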

A further data set concerns recombinant NL4-3 virus. As to the kind of experiment: HIV cell culture assay (antiviral activity, luciferase readout in infected MT-2 cells). It counts as cell-based. The note with it: Human immunodeficiency virus 1, NL43, MT2. An outline of the steps:
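MT-2 cells infected for 4-5 days with 293T-derived NL4-3 reporter virus (nef partly replaced by Renilla luciferase) in serial compound dilutions. Live-cell luciferase read-out. EC50 from median effect equation fit.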

One may read the CC50 as the concentration that lowers cell viability or growth by half. The pEC50 is the negative decadic logarithm of the EC50, by convention in mol/L. In turn, `Cn1nc(NS(C)(=O)=O)c2c(Cl)ccc(-n3c([C@H](Cc4cc(F)cc(F)c4)NC(=O)Cn4nc(C(F)F)c5c4C(F)(F)[C@@H]4C[C@H]54)nc4nc(OCCC(C)(C)c5ccccc5)ccc4c3=O)c21` (atropisomer, axis not shown; (P)) [Example 5, N-((S)-1-((3P)-3-(4-chloro-1-methyl-3-(methylsulfonamido)-1H-indazol-7-yl)-7-(3-methyl-3-phenylbutoxy)-4-oxo-3,4-dihydropyrido[2,3-d]pyrimidin-2-yl)-2-(3,5-difluorophenyl)ethyl)-2-((3bS,4aR)-3-(difluoromethyl)-5,5-difluoro-3b,4,4a,5-tetrahydro-1H-cyclopropa[3,4]cyclopenta[1,2-c]pyrazol-1-yl)acetamide] yielded a CC50 at 4 day in data set [1] of over 100000 pM. Besides, the negative-log EC50 (pEC50) in the data set on recombinant NL4-3 virus was 9.37.

In data set [1], `Cc1cnc(COc2ccc3c(=O)n(-c4ccc(Cl)c5c(NS(C)(=O)=O)nn(C)c45)c([C@H](Cc4cc(F)cc(F)c4)NC(=O)Cn4nc(C(F)F)c5c4C(F)(F)[C@@H]4C[C@H]54)nc3n2)nc1` (atropisomer, axis not shown; (P)) [Example 8, N-((S)-1-((3P,3P)-3-(4-chloro-1-methyl-3-(methylsulfonamido)-1H-indazol-7-yl)-7-((5-methylpyrimidin-2-yl)methoxy)-4-oxo-3,4-dihydropyrido[2,3-d]pyrimidin-2-yl)-2-(3,5-difluorophenyl)ethyl)-2-((3bS,4aR)-3-(difluoromethyl)-5,5-difluoro-3b,4,4a,5-tetrahydro-1H-cyclopropa[3,4]cyclopenta[1,2-c]pyrazol-1-yl)acetamide] returned a CC50 at 4 day of over 100000 pM. The negative-log EC50 (pEC50) in the data set with recombinant NL4-3 virus was 10.31.

In data set [1], `COCCCCCOc1ccc2c(=O)n(-c3ccc(Cl)c4c(NS(C)(=O)=O)nn(C)c34)c([C@H](Cc3cc(F)cc(F)c3)NC(=O)Cn3nc(C(F)F)c4c3C(F)(F)[C@@H]3C[C@H]43)nc2n1` (atropisomer, axis not shown; (P)) [Example 17, N-((S)-1-((3P)-3-(4-chloro-1-methyl-3-(methylsulfonamido)-1H-indazol-7-yl)-7-((5-methoxypentyl)oxy)-4-oxo-3,4-dihydropyrido[2,3-d]pyrimidin-2-yl)-2-(3,5-difluorophenyl)ethyl)-2-((3bS,4aR)-3-(difluoromethyl)-5,5-difluoro-3b,4,4a,5-tetrahydro-1H-cyclopropa[3,4]cyclopenta[1,2-c]pyrazol-1-yl)acetamide] showed a CC50 at 4 day of over 100000 pM. The negative logarithm of the EC50 (pEC50) in the data set on recombinant NL4-3 virus was 10.34.

On to `Cn1nc(NS(C)(=O)=O)c2c(Cl)ccc(-n3c([C@H](Cc4cc(F)cc(F)c4)NC(=O)Cn4nc(C(F)F)c5c4C(F)(F)[C@@H]4C[C@H]54)nc4nc(OCC5CC5(F)F)ccc4c3=O)c21` (stereo partly drawn) [Example 33, N-((1S)-1-((3P)-3-(4-chloro-1-methyl-3-(methylsulfonamido)-1H-indazol-7-yl)-7-((2,2-difluorocyclopropyl)methoxy)-4-oxo-3,4-dihydropyrido[2,3-d]pyrimidin-2-yl)-2-(3,5-difluorophenyl)ethyl)-2-((3bS,4aR)-3-(difluoromethyl)-5,5-difluoro-3b,4,4a,5-tetrahydro-1H-cyclopropa[3,4]cyclopenta[1,2-c]pyrazol-1-yl)acetamide], for which the half-maximal cytotoxic concentration (CC50) at 4 day in data set [1] is over 100000 pM. In the data set on recombinant NL4-3 virus, the negative logarithm of the EC50 (pEC50) is 10.43.

The values above are taken from patent US20230355626A1, “INHIBITORS OF HUMAN IMMUNODEFICIENCY VIRUS REPLICATION” (VIIV HEALTHCARE UK (NO.5) LIMITED, priority 2020, published 2023).
